Measurements published in US12448400B2, “KRAS G12D modulating compounds” (priority 2023, dated 2025).

Columns and labels:
[1] = Rat oral pharmacokinetics; set-up: species or system Male Sprague Dawley rats; details: male, Sprague Dawley, in vivo
Experimental: Rat Oral Pharmacokinetics
(§1) Test compounds were formulated in solution formulations (10 w/v % Sulfobutylether-p-cyclodextrin; 90% w/v % 50 mM Citrate Buffer) and administered orally to a group of three Male Sprague Dawley rats. The animals were fasted overnight prior to dose administration and up to four hours after dosing. The test articles were administrated by oral gavage at a dose volume of 5 mL-eq/kg.
Blood samples were collected at predose and 0.25, 0.5, 1, 2, 4, 6, 8, 12, 24, 48 and 72 hours post dose into K2EDTA tubes and stored on wet ice until processed. Whole blood was processed to plasma by centrifugation (3500 rpm for 10 minutes at 5° C.) within 30 minutes of collection. Plasma samples were placed in Micronic 96 well tubes and stored at −80° C. until transferred. Plasma concentration of the test compounds was determined by LC-MS/MS. Pharmacokinetic parameters were estimated using non-compartment model analysis. The maximum observed concentration (Cmax) and area under the curve from time of dosing to last measured concentration (AUClast) were calculated and reported.

[2] = tested on: GP2D (KRAS G12D) cells; test: 2D cell viability assay (CellTiter-Glo); assay type: cell-based; details: 96 h; GP2D cells, 4 days, CellTiter-Glo luminescence; read-out: G12D 2D EC50
In short: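 GP2D (KRAS G12D) cells, 1000/well in RPMI + 10% FBS, were plated onto compound (1:3 DMSO series) and grown 4 days at 37 °C, 5% CO2 in 2D. CellTiter-Glo luminescence was read; EC50 is the concentration giving 50% signal decrease, from sigmoidal fit.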

[3] = Mouse oral cassette pharmacokinetics; assay type: in vivo, male CD-1 mice; details: male, CD-1, mouse, in vivo, po, 30 mg/kg
In short: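 Male CD-1 mice (n=4) dosed orally by gavage at 30 mg-eq./kg per compound as cassettes of 1–3 compounds in 10 w/v % Captisol/50 mM citrate. Plasma sampled 0.5–24 h post dose, analysed by LC-MS/MS; Cmax and AUClast from non-compartmental analysis.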

[4] = Dog oral pharmacokinetics; set-up: species or system Male Beagle dogs; details: male, Beagle, in vivo
Experimental: Dog Oral Pharmacokinetics
as §1, with “(10%” for “(10”, “orally at 5 or 10 mg-eq./kg” for “orally”, “Beagle dogs.” for “Sprague Dawley rats.”, “ml/kg.” for “mL-eq/kg.”
Blood samples were collected into K2EDTA tubes at predose and 0.25, 0.5, 1, 2, 4, 6, 8, 12, 24 hours post dose, and once daily collection post 24 hours up to 168 hours. Whole blood were stored on wet ice and processed to plasma by centrifugation (3500 rpm for 10 minutes at 5° C.) within 1 hour of collection. Plasma samples were placed in Micronic 96 well tubes and stored at −80° C. until transferred. Plasma concentration of the test compounds was determined by LC-MS/MS. Pharmacokinetic parameters were estimated using non-compartment model analysis. The maximum observed concentration (Cmax) and area under the curve from time of dosing to last measured concentration (AUClast) were calculated and reported.

| Compound | Rat Parent % F ([1]; 15 mg/kg) | Rat Parent AUC ([1]; 15 mg/kg) | EC50 [2] | Mouse Parent AUC (nM * h) [3] | Dog Parent % F ([4]; 5 mg/kg) | Dog Parent AUC (nM * h) ([4]; 5 mg/kg) | Mouse Parent AUC [3] | Dog Parent % F ([4]; 10 mg/kg) | Dog Parent AUC ([4]; 10 mg/kg) | Rat Parent % F ([1]; 7.5 mg/kg) | Rat Parent AUC ([1]; 7.5 mg/kg) | Dog Parent AUC ([4]; 5 mg/kg) | Dog Parent AUC (nM * h) ([4]; 10 mg/kg) |
| --- | --- | --- | --- | --- | --- | --- | --- | --- | --- | --- | --- | --- | --- |
| C#Cc1c(F)ccc2cc(N)cc(-c3nc4c5c(nc(OC[C@@]67CCCN6C[C@H](F)C7)nc5c3F)N3C[C@H]5CC[C@@H]([C@H]3CCC4)N5Cc3oc(=O)oc3CC)c12 [Example 34, 4-(((6aR,7S,10R)-2-(3-amino-8-ethynyl-7-fluoronaphthalen-1-yl)-1-fluoro-13-(((2R,7aS)-2-fluorotetrahydro-1H-pyrrolizin-7a(5H)-yl)methoxy)-5,6,6a,7,8,9,10,11-octahydro-4H-3,11a,12,14,15-pentaaza-7,10-methanocyclohepta[4,5]cycloocta[1,2,3-de]naphthalen-15-yl)methyl)-5-ethyl-1,3-dioxol-2-one] | 5% | 270 nM·h | 0.4 nM | 1,300 nM * h | 12% | 1,200 nM * h |  |  |  |  |  |  |  |
| C#Cc1c(F)ccc2cc(O)cc(-c3nc4c5c(nc(OC[C@@]67CCCN6C[C@H](F)C7)nc5c3F)N3C[C@H]5CC[C@H](N5)[C@H]3CCC4)c12 [Comp. Ex. 75, reference compound] |  |  |  |  |  |  | 51 nM·h | 0.6% | 71 nM·h |  |  |  |  |
| C#Cc1c(F)ccc2cc(O)cc(-c3nc4c5c(nc(OC[C@@]67CCCN6[C@H](COC(C(F)(F)F)(C(F)(F)F)C(F)(F)F)CC7)nc5c3F)N3C[C@H]5CC[C@@H]([C@H]3CCC4)N5Cc3oc(=O)oc3C)c12 [Example 38, 4-(((6aR,7S,10R)-2-(8-ethynyl-7-fluoro-3-hydroxynaphthalen-1-yl)-1-fluoro-13-(((3S,7aS)-3-(((1,1,1,3,3,3-hexafluoro-2-(trifluoromethyl)propan-2-yl)oxy)methyl)tetrahydro-1H-pyrrolizin-7a(5H)-yl)methoxy)-5,6,6a,7,8,9,10,11-octahydro-4H-3,11a,12,14,15-pentaaza-7,10-methanocyclohepta[4,5]cycloocta[1,2,3-de]naphthalen-15-yl)methyl)-5-methyl-1,3-dioxol-2-one] |  |  | 0.25 nM | 2,100 nM * h | 4.2% |  |  |  |  | 3% | 280 nM·h | 210 nM·h |  |
| C#Cc1c(F)ccc2cc(N)cc(-c3nc4c5c(nc(OC[C@@]67CCCN6C[C@H](F)C7)nc5c3F)N3C[C@H]5CC[C@@H]([C@H]3CCC4)N5Cc3oc(=O)oc3C)c12 [Example 33, 4-(((6aR,7S,10R)-2-(3-amino-8-ethynyl-7-fluoronaphthalen-1-yl)-1-fluoro-13-(((2R,7aS)-2-fluorotetrahydro-1H-pyrrolizin-7a(5H)-yl)methoxy)-5,6,6a,7,8,9,10,11-octahydro-4H-3,11a,12,14,15-pentaaza-7,10-methanocyclohepta[4,5]cycloocta[1,2,3-de]naphthalen-15-yl)methyl)-5-methyl-1,3-dioxol-2-one] | 3.3% | 180 nM·h | 0.71 nM | 1,500 nM * h |  |  |  | 11% |  |  |  |  | 2,200 nM * h |
| Cc1oc(=O)oc1CN1[C@@H]2CC[C@H]1[C@H]1CCCc3nc(-c4cc(O)cc5ccc(F)c(OC(F)(F)F)c45)c(F)c4nc(OC[C@@]56CCCN5C[C@H](F)C6)nc(c34)N1C2 [Example 18, 4-(((6aR,7S,10R)-1-fluoro-2-(7-fluoro-3-hydroxy-8-(trifluoromethoxy)naphthalen-1-yl)-13-(((2R,7aS)-2-fluorotetrahydro-1H-pyrrolizin-7a(5H)-yl)methoxy)-5,6,6a,7,8,9,10,11-octahydro-4H-3,11a,12,14,15-pentaaza-7,10-methanocyclohepta[4,5]cycloocta[1,2,3-de]naphthalen-15-yl)methyl)-5-methyl-1,3-dioxol-2-one] |  |  |  |  |  |  |  | 12% | 600 nM·h |  |  |  |  |
